Source: paper PMC5049785, “Characterization of Novel Antimalarial Compound ACT-451840: Preclinical Assessment of Activity and Dose–Efficacy Modeling” (PLoS Medicine, 2016)
Like-named read-outs stand apart in the source and are kept apart here.

Tests used:
[1] = cited from earlier work
[2] = system: P. falciparum NF54 strain; assay: [3H]-hypoxanthine incorporation assay, NF54; format: cell-based, Plasmodium falciparum; conditions: mean ± SD
Protocol: In vitro time-, stage-, and concentration-dependent effects were assessed using pyrimethamine as a stage-specific and slow-acting control, as described elsewhere.

P. falciparum = assay: Prediction of human efficacious exposure
Source text: In this PK/PD approach, the robust endpoint of animal survival and cure were chosen for clinical relevance. […] The alternative approach used to assess efficacious concentrations in vivo calculated the minimum inhibitory concentration and estimated a minimum parasiticidal concentration from modeling of the exposure–efficacy in the P. falciparum murine model.

[3] = in vivo
[4] = system: P. falciparum clinical isolates (Papua, Indonesia); assay: Ex vivo drug susceptibility, P. falciparum clinical isolates; format: cell-based, Plasmodium falciparum; conditions: P. falciparum clinical isolates, n = 27 (closed symbols); read-out: median IC50
Protocol: (§1) […]. Thick blood films made from each well were stained with 5% Giemsa solution for 30 min and examined microscopically. The number of schizonts per 200 asexual-stage parasites was determined for each drug concentration and normalized to the control well.

[5] = Pharmacokinetic study in healthy mice; format: in vivo, female NMRI mice
Protocol: Female NMRI mice were purchased from Harlan (Horst, The Netherlands) by Actelion Pharmaceuticals. ACT-451840 was formulated as a solution in corn oil and dosed via oral gavage at 10, 100, and 300 mg/kg. Serial blood samples were collected at 0.5, 2, 4, and 8 h after dosing from two mice and after 1, 3, 6, and 24 h from two other mice, creating composite PK profiles from, in total, four mice per dose. Blood samples were analyzed using liquid chromatography coupled to tandem mass spectrometry (LC-MS/MS) after protein precipitation. PK parameters were estimated using non-compartmental analysis from the composite profiles.

[6] = Safety pharmacology in rats; format: in vivo; conditions: rats dosed up to 1,000 mg/kg
[7] = system: P. falciparum D6 (Sierra Leone); assay: [3H]-hypoxanthine incorporation assay, D6; format: cell-based, Plasmodium falciparum; conditions: read-out: 50% inhibitory concentration (IC50); D6, resistance MFQ; mean ± SD
[8] = system: P. vivax clinical isolates (Papua, Indonesia); assay: Ex vivo drug susceptibility, P. vivax clinical isolates; format: cell-based, Plasmodium vivax; conditions: P. vivax clinical isolates, n = 34 (open symbols); read-out: median IC50
Protocol: as §1

[9] = system: P. falciparum stage V gametocytes / oocysts in Anopheles stephensi; assay: Standard membrane feeding assay, indirect mode; format: cell-based, Plasmodium falciparum; conditions: 24 h pre-exposure of gametocytes
Protocol: ACT-451840 was tested in the standard membrane feeding assay at TropIQ (Nijmegen, The Netherlands) in two modes, as previously described. In the direct mode, the compound was directly added to a bloodmeal containing mature stage V gametocytes that was fed to Anopheles stephensi mosquitoes. […] Seven days after the bloodmeal, the number of oocysts in the midgut was determined by microscopy for both modes. […] Vehicle control (0.1% DMSO) and positive control (10 μM dihydroartemisinin) were included. Twenty mosquitoes were dissected per sample, and oocyst load was analyzed per mosquito.

[10] = Single compartment PK model with saturable absorption (predicted blood PK); parameters: species or system mice; conditions: for Time over threshold (h), predicted: threshold 1,000 ng/mL
Protocol: In order to analyze the PK/PD relationship, drug exposure was predicted for all tested doses in P. berghei mouse model using a single compartment model with saturable absorption based on the concentration–time profile observed after 10, 100, and 300 mg/kg single-dose regimen in healthy mice.

[11] = single oral 10 mg/kg in corn oil
[12] = single oral 100 mg/kg in corn oil
[13] = single oral 300 mg/kg in corn oil
[14] = mouse PK model parameter estimate
[15] = single-dose regimen, oral 10 mg/kg
[16] = single-dose regimen, oral 15 mg/kg
[17] = single-dose regimen, oral 20 mg/kg
[18] = single-dose regimen, oral 25 mg/kg
[19] = single-dose regimen, oral 30 mg/kg
[20] = single-dose regimen, oral 60 mg/kg
[21] = single-dose regimen, oral 80 mg/kg
[22] = single-dose regimen, oral 100 mg/kg
[23] = single-dose regimen, oral 300 mg/kg
[24] = triple-dose regimen, oral 3 mg/kg once per day
[25] = triple-dose regimen, oral 10 mg/kg once per day
[26] = triple-dose regimen, oral 30 mg/kg once per day
[27] = triple-dose regimen, oral 50 mg/kg once per day
[28] = triple-dose regimen, oral 100 mg/kg once per day
[29] = triple-dose regimen, oral 300 mg/kg once per day
[30] = triple-dose regimen, oral 2 x 15 mg/kg (twice per day)
[31] = triple-dose regimen, oral 2 x 30 mg/kg (twice per day)

CC(=O)N1CCN(c2ccc(CN(C(=O)/C=C/c3ccc(C(C)(C)C)cc3)[C@@H](Cc3ccccc3)C(=O)N3CCN(Cc4ccc(C#N)cc4)CC3)cc2)CC1 [ACT-451840]
exposure (AUC) observed in humans ([1]; single 500 mg dose, fed human subjects): 1,408 ng*h/mL
terminal half-life ([1]; single ascending dose study): 34 h
tolerability ([1]; single ascending dose, first-in-man study in healthy male participants): well tolerated
IC90 ([2]; NF54, n ≥ 3): 0.6 nM
IC99 ([2]; NF54, n ≥ 3): 1.2 ± 0.0 nM
IC50 ([2]; read-out: 50% inhibitory concentration (IC50), NF54, no resistance, n = 3): 0.4 nM
efficacious human total AUC, expressed in mouse blood (P. falciparum; 227 x 23): 5,250 ng*h/mL
predicted total efficacious human plasma AUC (P. falciparum; corrected for blood/plasma ratio of 0.6): 8,750 ng*h/mL
time for which the threshold of […] would be covered (P. falciparum; single dose of 500 mg, fed state, healthy subjects): 72 h
genotoxicity, micronucleus test [3]: not genotoxic
IC50 [4]: 2.5 nM
AUC (ng/mL*h) [5, 11]: 1,780 ± 18%
Cmax (ng/mL) [5, 11]: 415 ± 20%
Tmax [5, 11]: 2.5 h
AUC (ng/mL*h) [5, 12]: 32,900 ± 36%
Cmax (ng/mL) [5, 12]: 3,910 ± 20%
Tmax [5, 12]: 6 h
AUC (ng/mL*h) [5, 13]: 60,900 ± 33%
Cmax (ng/mL) [5, 13]: 7,010 ± 32%
Tmax [5, 13]: 7 h
effects on central nervous and respiratory parameters [6]: no effects
IC50 [7]: 0.5 ± 0.1 nM
IC50 [8]: 3 nM
IC50 ([9]; oocysts counted 7 d after bloodmeal, read-out: IC50 oocyst development in the mosquito (oocyst intensity)): 30 nM
IC50 ([9]; read-out: IC50 prevalence of infection (number of infected mosquitoes)): 104 nM
total AUC giving an ED90 ([10]; P. berghei model, triple-dose regimen of 13 mg/kg): 16,300 ng*h/mL
Clearance/bioavailability [10, 14]: 2.4 L/h
Concentration at half the maximal absorption [10, 14]: 64000 ng/mL
Max Absorption [10, 14]: 21 µg/h/kg
Volume of distribution/bioavailability [10, 14]: 4.3 L/kg
Cmax (ng/mL), predicted [10, 15]: 617 ng/mL
Tmax (h), predicted [10, 15]: 3 h
Total AUC over the treatment period (ng/mL*h), predicted [10, 15]: 4170 ng·h/mL
Time over threshold (h), predicted [10, 15]: 0 h
Cmax (ng/mL), predicted [10, 16]: 901 ng/mL
Tmax (h), predicted [10, 16]: 3 h
Total AUC over the treatment period (ng/mL*h), predicted [10, 16]: 6260 ng·h/mL
Time over threshold (h), predicted [10, 16]: 0 h
Cmax (ng/mL), predicted [10, 17]: 1170 ng/mL
Tmax (h), predicted [10, 17]: 3 h
Total AUC over the treatment period (ng/mL*h), predicted [10, 17]: 8350 ng·h/mL
Time over threshold (h), predicted [10, 17]: 0 h
Cmax (ng/mL), predicted [10, 18]: 1420 ng/mL
Tmax (h), predicted [10, 18]: 3 h
Total AUC over the treatment period (ng/mL*h), predicted [10, 18]: 10400 ng·h/mL
Time over threshold (h), predicted [10, 18]: 0 h
Cmax (ng/mL), predicted [10, 19]: 1670 ng/mL
Tmax (h), predicted [10, 19]: 3 h
Total AUC over the treatment period (ng/mL*h), predicted [10, 19]: 12500 ng·h/mL
Time over threshold (h), predicted [10, 19]: 0 h
Cmax (ng/mL), predicted [10, 20]: 2900 ng/mL
Tmax (h), predicted [10, 20]: 4 h
Total AUC over the treatment period (ng/mL*h), predicted [10, 20]: 25100 ng·h/mL
Time over threshold (h), predicted [10, 20]: 7 h
Cmax (ng/mL), predicted [10, 21]: 3540 ng/mL
Tmax (h), predicted [10, 21]: 4 h
Total AUC over the treatment period (ng/mL*h), predicted [10, 21]: 33400 ng·h/mL
Time over threshold (h), predicted [10, 21]: 9 h
Cmax (ng/mL), predicted [10, 22]: 4090 ng/mL
Tmax (h), predicted [10, 22]: 6 h
Total AUC over the treatment period (ng/mL*h), predicted [10, 22]: 41800 ng·h/mL
Time over threshold (h), predicted [10, 22]: 11 h
Cmax (ng/mL), predicted [10, 23]: 6690 ng/mL
Tmax (h), predicted [10, 23]: 6.5 h
Total AUC over the treatment period (ng/mL*h), predicted [10, 23]: 126000 ng·h/mL
Time over threshold (h), predicted [10, 23]: 24 h
Cmax (ng/mL), predicted [10, 24]: 192 ng/mL
Tmax (h), predicted [10, 24]: 27 h
Total AUC over the treatment period (ng/mL*h), predicted [10, 24]: 3750 ng·h/mL
Time over threshold (h), predicted [10, 24]: 0 h
Cmax (ng/mL), predicted [10, 25]: 617 ng/mL
Tmax (h), predicted [10, 25]: 27 h
Total AUC over the treatment period (ng/mL*h), predicted [10, 25]: 12500 ng·h/mL
Time over threshold (h), predicted [10, 25]: 0 h
Cmax (ng/mL), predicted [10, 26]: 1,670 ng/mL
Tmax (h), predicted [10, 26]: 51 h
Total AUC over the treatment period (ng/mL*h), predicted [10, 26]: 37600 ng·h/mL
Time over threshold (h), predicted [10, 26]: 0 h
Cmax (ng/mL), predicted [10, 27]: 2530 ng/mL
Tmax (h), predicted [10, 27]: 27 h
Total AUC over the treatment period (ng/mL*h), predicted [10, 27]: 62700 ng·h/mL
Time over threshold (h), predicted [10, 27]: 16 h
Cmax (ng/mL), predicted [10, 28]: 4100 ng/mL
Tmax (h), predicted [10, 28]: 52 h
Total AUC over the treatment period (ng/mL*h), predicted [10, 28]: 125000 ng·h/mL
Time over threshold (h), predicted [10, 28]: 32 h
Cmax (ng/mL), predicted [10, 29]: 6830 ng/mL
Tmax (h), predicted [10, 29]: 54 h
Time over threshold (h), predicted [10, 29]: 72 h
Cmax (ng/mL), predicted [10, 30]: 1060 ng/mL
Tmax (h), predicted [10, 30]: 35 h
Total AUC over the treatment period (ng/mL*h), predicted [10, 30]: 37600 ng·h/mL
Time over threshold (h), predicted [10, 30]: 0 h
Cmax (ng/mL), predicted [10, 31]: 1980 ng/mL
Tmax (h), predicted [10, 31]: 59 h
Total AUC over the treatment period (ng/mL*h), predicted [10, 31]: 75200 ng·h/mL
Time over threshold (h), predicted [10, 31]: 8 h
